# Data published in patent EP0054898A1, “Formamidine derivatives, preparation and use thereof, pharmaceutical compositions containing them and their preparation” (HOECHST AKTIENGESELLSCHAFT, priority 1980, dated 1982).
# System: not listed separately
# Assay: Relative liver weight
# Format: in vivo
# Conditions: in wirksamer Dosis; result in words
# Source text: Es ist allgemein anerkannt, daß für die Entstehung artericsklerotischer Gefäßveränderungen, insbesondere der coronaren Herzkrankheit, Hyperlipoproteinämien einen wesentlichen Risikofaktor darstellen. Für die Prophylaxe und die Regression von atherosklerotischen Veränderungen kommt daher der Senkung erhöhter Serum-Lipoproteine eine außerordentliche Bedeutung zu. Hierbei kommt es aber auf ganz bestimmte Klassen von Serum-Lipoproteinen an, da die low density (LDL) und very low density-Lipoproteine (VLDL) einen atherogenen Risikofaktor darstellen, während die high density-Lipoproteine (HDL) eine Schutzfunktion gegenüber der coronaren Herzkrankheit darstellen. Hypolipidämika sollen demnach VLDL-Cholesterin und LDL-Cholesterin im Serum erniedrigen, dabei aber die HDL-Cholesterin-Konzentration nach Möglichkeit unbeeinflußt lassen oder sogar erhöhen. Die erfindungsgemäßen Verbindungen haben wertvolle therapeutische Eigenschaften. So erniedrigen sie vor allem die Konzentration von LDL und VLDL, während die HDL-Fraktion entweder in wesentlich geringerem Maße erniedrigt, oder sogar erhöht wird..Sie können daher zur Prophylaxe und Regression von atherosklerotischen Veränderungen herangezogen werden, indem sie einen kausalen Risikofaktor ausschalten. Hierzu zählen nicht nur die primären Hyperlipoproteinämien, sondern auch gewisse.sekundäre Hyperlipidämien wie sie z.B. beim Diabtes vorkommen.
row,Compound,relatives Lebergewicht
1,"CCOC(=O)C(C)(C)Oc1ccc(Cl)cc1 [Clofibrat, reference compound]",starken Erhöhung des relativen Lebergewichts

# System: Serum-Lipoproteine
# Assay: Effect on serum lipoproteins (cholesterol in serum and in ultracentrifuge fractions) in rats after 7 days of oral treatment
# Format: in vivo, männlichen Wistar-Ratten
# Conditions: Dosis 1 mg/kg/Tag, oral (gavage), 7 days, pooled serum
# Source text: Die Wirkung der angeführten Verbindungen auf die Serum- Lipoproteine wurde an männlichen Wistar-Ratten untersucht, die 7 Tage per Schlundsonde mit den angeführten in Polyäthylenglykol 400 suspendierten Verbindungen behandelt wurden. Außerdem wurde eine Kontrollgruppe, die nur das Lösungsmittel Polyäthylenglykol 400 erhielt, mitgeführt, sowie eine Ratten-Gruppe, die zum Vergleich das Standardhypolipidämikum Clofibrat, ebenfalls in Polyäthylenglykol 400 gelöst, erhielt. Pro Gruppe wurden in der Regel 10 Tiere eingesetzt, denen am Ende der Behandlung das Blut nach leichter Äthernakose aus dem Orbitalplexus entnommen wurde. Das daraus gewonnene Serum wurde gepoolt. Die Serum- Lipoproteine wurden in der Ultrazentrifuge in folgende Dichteklassen getrennt: • VLDL 1,006; LDL 1,006 bis 1,04; HDL 1,04 bis 1,21.
# Aus den in der Ultrazentrifuge isolierten LipoproteinFraktionen wurde das darin enthaltene Choletserin vollenzymatisch nach der CHOD-PAP-Methode mittels der Testkombination von Boehringer Mannheim bestimmt und die Werte in ug/ml Serum umgerechnet. In der angeführten Tabelle (S.8) ist die Veränderung des Lipoprotein-Cholesterins in der behandelten Gruppe gegenüber einer unter gleichen Bedingungen mitgeführten Kontrollgruppe angegeben.
# % Veränderung der Lipoproteine in Ratten-Serum nach siebentägiger oraler Behandlung mit den Verbindungen
row,Compound,% Veränderung des Cholesterins gegenüber Kontrolle in der Serum-Lipoprotein-Fraktion VLDL
1,CN(C#N)C=Nc1ccc(Oc2ccc(Cl)cc2)c(Cl)c1 [Beispiel 50],+3%

# Same assay, conditions: Dosis 3 mg/kg/Tag, oral (gavage), 7 days, pooled serum
Compound,% Veränderung des Cholesterins gegenüber Kontrolle im Serum,% Veränderung des Cholesterins gegenüber Kontrolle in der Serum-Lipoprotein-Fraktion HDL,% Veränderung des Cholesterins gegenüber Kontrolle in der Serum-Lipoprotein-Fraktion LDL [%],% Veränderung des Cholesterins gegenüber Kontrolle in der Serum-Lipoprotein-Fraktion VLDL [%]
CCCCN(C=Nc1ccc(Sc2ccccc2)cc1)S(=O)(=O)c1ccc(C)cc1 [Beispiel 27],-18%,-2%,-50,-13
Cc1ccc(S(=O)(=O)N(C=Nc2ccc(Sc3ccccc3)cc2)C(C)C)cc1 [Beispiel 28],-5%,+2%,-25,-5
CN(C#N)C=Nc1ccc(Oc2ccccc2)cc1 [Beispiel 48],-8%,-2%,-56,
CN(C#N)C=Nc1ccc(Oc2ccc(Cl)cc2Cl)cc1 [Beispiel 49],+2%,+2%,-48,
Cc1ccc(S(=O)(=O)N(C)C=Nc2ccc(Cl)cc2C(F)(F)F)cc1 [Beispiel 39],-3%,-7%,-26,-26

# Same assay, conditions: Dosis 10 mg/kg/Tag, oral (gavage), 7 days, pooled serum
Compound,% Veränderung des Cholesterins gegenüber Kontrolle im Serum,% Veränderung des Cholesterins gegenüber Kontrolle in der Serum-Lipoprotein-Fraktion HDL,% Veränderung des Cholesterins gegenüber Kontrolle in der Serum-Lipoprotein-Fraktion LDL [%],% Veränderung des Cholesterins gegenüber Kontrolle in der Serum-Lipoprotein-Fraktion VLDL [%]
C#CCN(C=Nc1ccc(Oc2ccccc2)cc1)S(=O)(=O)c1ccc(C)cc1 [Beispiel 7],-1%,+5%,-22,-51
Cc1ccc(S(=O)(=O)N(C)C=Nc2ccc(Oc3ccccc3)cc2)cc1 [Beispiel 12],-6%,-1%,-42,-70
Cc1ccc(S(=O)(=O)N(C)C=Nc2ccc(Cl)cc2C)cc1 [Beispiel 38],-8%,+2%,-36,-30
Cc1ccc(S(=O)(=O)N(C)C=Nc2cc(C(F)(F)F)cc(C(F)(F)F)c2)cc1 [Beispiel 36],-2%,,,
Cc1ccc(S(=O)(=O)N(C=Nc2ccc(Oc3ccccc3)cc2)Cc2ccccc2)cc1 [Beispiel 2],-4%,+3%,-22,-50
Cc1ccc(S(=O)(=O)N(C)C=Nc2ccc(Oc3ccc(Cl)cc3Cl)cc2)cc1 [Beispiel 13],-6%,+1%,-39,-100
Cc1ccc(S(=O)(=O)N(C)C=Nc2ccc(Sc3ccccc3)cc2)cc1 [Beispiel 25],-5%,+5%,-45,-70
CCCN(C=Nc1ccc(Oc2ccccc2)cc1)S(=O)(=O)c1ccc(C)cc1 [Beispiel 3],-5%,+8%,-22,-32
Cc1ccc(S(=O)(=O)N(C)C=Nc2c(C)cc(C)cc2C)cc1 [Beispiel 34],+10%,+14%,-36,
CCN(C=Nc1ccc(Sc2ccccc2)cc1)S(=O)(=O)c1ccc(C)cc1 [Beispiel 30],-3%,-1%,-27,
Cc1ccc(S(=O)(=O)N(C)C=Nc2ccccc2C)cc1 [Beispiel 37],-8%,+3%,-51,

# Same assay, conditions: Dosis 100 mg/kg/Tag, oral (gavage), 7 days, pooled serum
Compound,% Veränderung des Cholesterins gegenüber Kontrolle im Serum [%],% Veränderung des Cholesterins gegenüber Kontrolle in der Serum-Lipoprotein-Fraktion HDL [%],% Veränderung des Cholesterins gegenüber Kontrolle in der Serum-Lipoprotein-Fraktion LDL [%],% Veränderung des Cholesterins gegenüber Kontrolle in der Serum-Lipoprotein-Fraktion VLDL [%]
"CCOC(=O)C(C)(C)Oc1ccc(Cl)cc1 [Clofibrat, reference compound]",-24,-33,-25,-30

# Same assay, conditions: summary in words of the table, 7 days oral
row,Compound,"Wirkung auf die Lipoproteinfraktionen (VLDL, LDL, HDL)"
1,"CCOC(=O)C(C)(C)Oc1ccc(Cl)cc1 [Clofibrat, reference compound]",etwa gleichstarke Senkung der LDL-Fraktion und der HDL-Fraktion
